One experiment deals with T1, Glutamate receptor ionotropic, NMDA 2C (Rattus norvegicus, UniProt Q00961). Description: Binding affinity against phencyclidine receptor was determined by the displacement of [3H]TCP of whole rat brain minus cerebellum. Type of experiment: tissue-based. A general note: Displacement assays read how much labelled ligand stays bound in the presence of the test substance.
T1 sequence (Q00961 whole entry): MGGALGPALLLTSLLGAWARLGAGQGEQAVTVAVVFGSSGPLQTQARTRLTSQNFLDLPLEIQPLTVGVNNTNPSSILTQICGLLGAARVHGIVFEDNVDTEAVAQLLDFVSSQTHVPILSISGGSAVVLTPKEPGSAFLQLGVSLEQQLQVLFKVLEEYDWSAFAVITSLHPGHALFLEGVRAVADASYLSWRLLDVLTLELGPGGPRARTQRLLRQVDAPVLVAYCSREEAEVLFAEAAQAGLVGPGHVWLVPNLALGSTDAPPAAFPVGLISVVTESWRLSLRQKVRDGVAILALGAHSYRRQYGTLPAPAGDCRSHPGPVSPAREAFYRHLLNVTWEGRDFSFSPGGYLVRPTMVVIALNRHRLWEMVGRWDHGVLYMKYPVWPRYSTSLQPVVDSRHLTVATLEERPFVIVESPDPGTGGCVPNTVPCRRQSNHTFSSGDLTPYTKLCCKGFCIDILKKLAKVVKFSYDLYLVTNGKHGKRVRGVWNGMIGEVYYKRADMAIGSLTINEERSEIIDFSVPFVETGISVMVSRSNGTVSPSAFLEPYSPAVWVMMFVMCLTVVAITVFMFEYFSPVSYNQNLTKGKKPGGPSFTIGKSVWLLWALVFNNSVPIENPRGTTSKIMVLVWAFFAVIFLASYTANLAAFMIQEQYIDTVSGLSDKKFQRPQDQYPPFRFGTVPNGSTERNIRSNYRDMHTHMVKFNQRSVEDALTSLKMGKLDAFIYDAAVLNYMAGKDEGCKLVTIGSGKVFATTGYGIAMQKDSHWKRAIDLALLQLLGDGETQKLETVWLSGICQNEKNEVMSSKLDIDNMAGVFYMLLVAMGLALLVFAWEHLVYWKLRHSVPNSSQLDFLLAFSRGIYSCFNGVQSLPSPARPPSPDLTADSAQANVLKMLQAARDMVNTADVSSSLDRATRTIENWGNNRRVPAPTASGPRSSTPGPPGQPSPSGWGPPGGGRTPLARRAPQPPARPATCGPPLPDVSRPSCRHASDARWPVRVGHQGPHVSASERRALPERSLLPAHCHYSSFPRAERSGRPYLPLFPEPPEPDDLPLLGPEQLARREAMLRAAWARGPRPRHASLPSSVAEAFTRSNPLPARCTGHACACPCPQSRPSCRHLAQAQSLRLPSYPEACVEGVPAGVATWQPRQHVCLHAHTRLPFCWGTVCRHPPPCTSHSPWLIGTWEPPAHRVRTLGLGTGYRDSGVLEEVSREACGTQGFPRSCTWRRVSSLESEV
What is called Ki is a measure of affinity in units of concentration, obtained from inhibition or displacement. High values mean lower affinity, low ones higher affinity. Consider `CC1CCCN(C2(c3ccccc3)CCCCC2)C1` (stereo in doubt; (+)), for which the Ki stood at 60 nM.
On the same count and under the same terms, to `CC1CCCN(C2(c3ccccc3)CCCCC2)C1` (stereo in doubt; (-)) belongs 2150 nM; to `C[C@@H]1CCC[C@@](c2ccccc2)(N2CCCCC2)C1`, 6800 nM.
Still for that read-out and setting: to `c1ccc(C2(N3CCCCC3)CCCCC2)cc1` [PHENCYCLIDINE] belongs 60 nM; to `C[C@@H]1CCC[C@](c2ccccc2)(N2CCCCC2)C1`, 820 nM.
The same measure, in the same setting: to `C[C@H]1CCC[C@@](c2ccccc2)(N2CCCCC2)C1` belongs 3300 nM; to `C[C@H]1CCC[C@](c2ccccc2)(N2CCCCC2)C1`, 170 nM.

The target of the next experiment is T1, Glutamate receptor ionotropic, NMDA 2C. As to the kind of experiment: Inhibition activity against binding of phencyclidine receptor was determined by the displacement of [3H]-TCP of whole rat brain minus cerebellum. It counts as tissue-based.
For orientation: IC50 means the concentration needed to halve the response being measured. Lower therefore signals inhibition by little substance. With `c1ccc(C2(N3CCCCC3)CCCCC2)cc1` [PHENCYCLIDINE], the half-maximal inhibitory concentration (IC50) is 600 nM. This lies in the sub-micromolar range.

For the origin of these results see ChEMBL document CHEMBL1124274, “Synthesis, pharmacological action, and receptor binding affinity of the enantiomeric 1-(1-phenyl-3-methylcyclohexyl)piperidines” (J Med Chem, 1988).
